The experiment relates to influx of neutrophils to the lung in LPS-challenged rats. Put plainly: Rat LPS neutrophilia model. Conditions: LPS aerosol, lavage 4 hours later, in at least one of the range of conditions tested, significance p<0.05. The format is in vivo. As for the experimental part:
The effect of compounds on the influx of neutrophils to the lung in LPS-challenged rats is evaluated as follows. The test compound is suspended in one of the following solutions: 0.5% tween 80/PBS, 0.5% tween 80/saline, 10% EtOH/saline (with pH adjusted to 2.0, or 8.0 with HCl, or unadjusted), Saline (pH 2.0, 6.5 or 8.0, 0.5% Tragacanth, 1% DMSO/20% Encapsin/Saline, or acidified 5% Tragacanth. The suspension process may be aided by the use of a glass homogenizer. For intratracheal administration, the animals are anesthetized with inhaled isoflurane and placed in a supine position, the trachea is intubated with a steel gavage needle (1.5 inch, 22 gauge, small ball) or a Penn-Century Microsprayer Aerosolizer (model IA-LB) and 200 ul of dosing solution is delivered. The animals are visually monitored during the recovery process, which typically occurs within two minutes.
Rats treated with compound or vehicle (15 min-24 hours pretreatment) are exposed to an LPS aerosol (100 ug/ml) for 15 min. Four hours later the rats are euthanized with pentobarbital (100 mg/kg, i.p.) and the airways are lavaged with 5 washes of 5 ml of phosphate buffered saline. The harvested cells are stained (Diffquick) and counted to determine total and differential cell data. In a typical study, macrophages represent 40-70% of the total cells, and polymorphonuclear cells 30-60% of the total cells. Inhibition of neutrophil levels relative to no compound controls is calculated based on the differential counts.
The assay has varying conditions, such as concentration, pretreat time, form of the compound (crystalline, amorphous, salts, micronised), and a wet or dry application of the compound.
The data is obtained as % inhibition using a particular concentration and pretreat time.

“Also recorded” adds a separate entry of the source.

Regarding `Cc1ccc(C(=O)NC(C)C)cc1-c1nc(NCCN(C)C)nc2c1CNC(=O)N2c1c(F)cccc1F` [Example 37, 3-(8-(2,6-difluorophenyl)-2-{[2-(dimethylamino)ethyl]amino}-7-oxo-5,6,7,8-tetrahydropyrimido[4,5-d]pyrimidin-4-yl)-4-methyl-N-(1-methylethyl)benzamide], the inhibition of neutrophilia result is given as “statistically nonsignificant inhibition of neutrophilia”.

`Cc1ccc(C(=O)Nc2ccc(F)cc2)cc1-c1nc(NC2CCN(C)CC2)nc2c1CNC(=O)N2c1c(F)cccc1F` [Example 39, 3-{8-(2,6-difluorophenyl)-2-[(1-methyl-4-piperidinyl)amino]-7-oxo-5,6,7,8-tetrahydropyrimido[4,5-d]pyrimidin-4-yl}-N-(4-fluorophenyl)-4-methylbenzamide]: the inhibition of neutrophilia result is reported as “statistically nonsignificant inhibition of neutrophilia”.

Turning to `Cc1ccc(C(=O)NC(C)C)cc1-c1nc(NCCCN(C)C)nc2c1CNC(=O)N2c1c(F)cccc1F` [Example 40, 3-(8-(2,6-difluorophenyl)-2-{[3-(dimethylamino)propyl]amino}-7-oxo-5,6,7,8-tetrahydropyrimido[4,5-d]pyrimidin-4-yl)-4-methyl-N-(1-methylethyl)benzamide], the inhibition of neutrophilia result was “statistically significant inhibition of neutrophilia”.

As for `Cc1ccc(C(=O)Nc2ccc(F)cc2)cc1-c1nc(NCCCN(C)C)nc2c1CNC(=O)N2c1c(F)cccc1F` [Example 42, 3-(8-(2,6-difluorophenyl)-2-{[3-(dimethylamino)propyl]amino}-7-oxo-5,6,7,8-tetrahydropyrimido[4,5-d]pyrimidin-4-yl)-N-(4-fluorophenyl)-4-methylbenzamide], the inhibition of neutrophilia result was “statistically significant inhibition of neutrophilia”.

For `CCN(CC)CCCNc1nc(-c2cc(C(=O)Nc3ccc(F)cc3)ccc2C)c2c(n1)N(c1c(F)cccc1F)C(=O)NC2` [Example 43, 3-[2-{[3-(diethylamino)propyl]amino}-8-(2,6-difluorophenyl)-7-oxo-5,6,7,8-tetrahydropyrimido[4,5-d]pyrimidin-4-yl]-N-(4-fluorophenyl)-4-methylbenzamide], the inhibition of neutrophilia entry is “inactive”.

Consider `CCCNC(=O)c1ccc(C)c(-c2nc(N(C)CCCN(C)C)nc3c2CNC(=O)N3c2c(F)cccc2F)c1` [Example 53, 3-{8-(2,6-difluorophenyl)-2-[[3-(dimethylamino)propyl](methyl)amino]-7-oxo-5,6,7,8-tetrahydropyrimido[4,5-d]pyrimidin-4-yl}-4-methyl-N-propylbenzamide], for which the inhibition of neutrophilia entry is given as “statistically nonsignificant inhibition of neutrophilia”.

Regarding `Cc1ccc(C(=O)NC(C)C)cc1-c1nc(N2CCC(N3CCCCC3)CC2)nc2c1CNC(=O)N2c1c(F)cccc1F` [Example 57, 3-[2-(1,4′-bipiperidin-1′-yl)-8-(2,6-difluorophenyl)-7-oxo-5,6,7,8-tetrahydropyrimido[4,5-d]pyrimidin-4-yl]-4-methyl-N-(1-methylethyl)benzamide], the inhibition of neutrophilia entry was “statistically nonsignificant inhibition of neutrophilia”.

As for `Cc1ccc(C(=O)NC(C)C)cc1-c1nc(N2CCC(N3CCCC3)CC2)nc2c1CNC(=O)N2c1c(F)cccc1F` [Example 60, 3-{8-(2,6-difluorophenyl)-7-oxo-2-[4-(1-pyrrolidinyl)-1-piperidinyl]-5,6,7,8-tetrahydropyrimido[4,5-d]pyrimidin-4-yl}-4-methyl-N-(1-methylethyl)benzamide], the inhibition of neutrophilia result is “statistically nonsignificant inhibition of neutrophilia; also recorded: inactive”.

For the compound `Cc1ccc(C(=O)NC(C)C)cc1-c1nc(N2CCC(N3CCC(C)CC3)CC2)nc2c1CNC(=O)N2c1c(F)cccc1F` [Example 70, 3-[8-(2,6-difluorophenyl)-2-(4-methyl-1,4′-bipiperidin-1′-yl)-7-oxo-5,6,7,8-tetrahydropyrimido[4,5-d]pyrimidin-4-yl]-4-methyl-N-(1-methylethyl)benzamide], the inhibition of neutrophilia entry is listed as “statistically significant inhibition of neutrophilia”.

Regarding `CN(C)CCNc1nc(-c2cccc(C(=O)Nc3ccccc3)c2)c2c(n1)N(c1c(F)cccc1F)C(=O)NC2` [Example 91], the inhibition of neutrophilia entry is “statistically significant inhibition of neutrophilia”.

With `CN(C)CCNc1nc(-c2cccc(C(=O)Nc3nccs3)c2)c2c(n1)N(c1c(F)cccc1F)C(=O)NC2` [Example 92, 3-(8-(2,6-difluorophenyl)-2-{[2-(dimethylamino)ethyl]amino}-7-oxo-5,6,7,8-tetrahydropyrimido[4,5-d]pyrimidin-4-yl)-N-1,3-thiazol-2-ylbenzamide], the inhibition of neutrophilia entry is “statistically significant inhibition of neutrophilia”.

Regarding `CN(C)CCNc1nc(-c2cccc(C(=O)Nc3ccc(F)cc3)c2)c2c(n1)N(c1c(F)cccc1F)C(=O)NC2` [Example 93], the inhibition of neutrophilia result is “statistically nonsignificant inhibition of neutrophilia”.

Regarding `Cc1c(F)cc(C(=O)Nc2ccccc2)cc1-c1nc(NCCN(C)C)nc2c1CNC(=O)N2c1c(F)cccc1F` [Example 112, 3-(8-(2,6-difluorophenyl)-2-{[2-(dimethylamino)ethyl]amino}-7-oxo-5,6,7,8-tetrahydropyrimido[4,5-d]pyrimidin-4-yl)-5-fluoro-4-methyl-N-phenylbenzamide], the inhibition of neutrophilia result is given as “statistically significant inhibition of neutrophilia”.

On to `Cc1ccc(C(=O)Nc2nccs2)cc1-c1nc(NCCCN(C)C)nc2c1CNC(=O)N2c1c(F)cccc1F` [Example 119, 3-(8-(2,6-difluorophenyl)-2-{[3-(dimethylamino)propyl]amino}-7-oxo-5,6,7,8-tetrahydropyrimido[4,5-d]pyrimidin-4-yl)-4-methyl-N-1,3-thiazol-2-ylbenzamide], for which the inhibition of neutrophilia result is reported as “statistically significant inhibition of neutrophilia”.

On to `CCN(CC)CCCNc1nc(-c2cc(C(=O)Nc3nccs3)ccc2C)c2c(n1)N(c1c(F)cccc1F)C(=O)NC2` [Example 120, 3-[2-{[3-(diethylamino)propyl]amino}-8-(2,6-difluorophenyl)-7-oxo-5,6,7,8-tetrahydropyrimido[4,5-d]pyrimidin-4-yl]-4-methyl-N-1,3-thiazol-2-ylbenzamide], for which the inhibition of neutrophilia result was “statistically significant inhibition of neutrophilia”.

Consider `Cc1ccc(C(=O)Nc2nccs2)cc1-c1nc(N(C)CCCN(C)C)nc2c1CNC(=O)N2c1c(F)cccc1F` [Example 124, 3-{8-(2,6-difluorophenyl)-2-[[3-(dimethylamino)propyl](methyl)amino]-7-oxo-5,6,7,8-tetrahydropyrimido[4,5-d]pyrimidin-4-yl}-4-methyl-N-1,3-thiazol-2-ylbenzamide], for which the inhibition of neutrophilia entry is recorded as “statistically nonsignificant inhibition of neutrophilia”.

With `CSc1ccc(NC(=O)c2ccc(C)c(-c3nc(NCCN(C)C)nc4c3CNC(=O)N4c3c(F)cccc3F)c2)cc1` [Example 127, 3-(8-(2,6-difluorophenyl)-2-{[2-(dimethylamino)ethyl]amino}-7-oxo-5,6,7,8-tetrahydropyrimido[4,5-d]pyrimidin-4-yl)-4-methyl-N-[4-(methylthio)-phenyl]benzamide], the inhibition of neutrophilia entry is listed as “statistically significant inhibition of neutrophilia”.

`Cc1ccc(C(=O)Nc2nccs2)cc1-c1nc(NC[C@H](C)O)nc2c1CNC(=O)N2c1c(F)cccc1F` [Example 134, 3-(8-(2,6-difluorophenyl)-2-{[(2S)-2-hydroxypropyl]amino}-7-oxo-5,6,7,8-tetrahydropyrimido[4,5-d]pyrimidin-4-yl)-4-methyl-N-1,3-thiazol-2-ylbenzamide]: the inhibition of neutrophilia entry is reported as “statistically nonsignificant inhibition of neutrophilia”.

As for `Cc1ccc(C(=O)Nc2ccccc2)cc1-c1nc(NCCN(C)C)nc2c1CNC(=O)N2c1c(F)cccc1F` [Example 137, 3-(8-(2,6-difluorophenyl)-2-{[2-(dimethylamino)ethyl]amino}-7-oxo-5,6,7,8-tetrahydropyrimido[4,5-d]pyrimidin-4-yl)-4-methyl-N-phenylbenzamide], the inhibition of neutrophilia result is reported as “statistically significant inhibition of neutrophilia”.

As for `Cc1ccc(C(=O)Nc2ccc(F)c(F)c2)cc1-c1nc(NCCN(C)C)nc2c1CNC(=O)N2c1c(F)cccc1F` [Example 138, N-(3,4-difluorophenyl)-3-(8-(2,6-difluorophenyl)-2-{[2-(dimethylamino)-ethyl]amino}-7-oxo-5,6,7,8-tetrahydropyrimido[4,5-d]pyrimidin-4-yl)-4-methylbenzamide], the inhibition of neutrophilia result is recorded as “statistically significant inhibition of neutrophilia”.

Take `COc1ccc(NC(=O)c2ccc(C)c(-c3nc(NCCN(C)C)nc4c3CNC(=O)N4c3c(F)cccc3F)c2)cn1` [Example 140, 3-(8-(2,6-difluorophenyl)-2-{[2-(dimethylamino)ethyl]amino}-7-oxo-5,6,7,8-tetrahydropyrimido[4,5-d]pyrimidin-4-yl)-4-methyl-N-[6-(methyloxy)-3-pyridinyl]benzamide]: the inhibition of neutrophilia entry is listed as “statistically significant inhibition of neutrophilia”.
